Data as given in patent US4603125A, “Substituted o-phenylenediamine acridine compounds having antitumor activity” (Development Finance Corporation of New Zealand, priority 1982, dated 1986).
Entries after “also recorded” stand apart in the source; their conditions may differ.

Key:
[1] = system: L1210 leukemia; conditions: earlier work, cited from earlier work
[2] = system: tumour; test: antitumour activity in in vivo test systems (summary); conditions: compared to unsubstituted AMSA and m-AMSA (for compound 1)
Text: The compounds of general formula (I) and particularly the examples listed in Tables I and II, have antitumor activity in in vivo test systems, as shown by the data of Tables III and IV.

[3] = system: Lewis lung carcinoma; test: Lewis lung carcinoma in vivo (increase in lifespan); conditions: for ILS (percentage increase in lifespan), Lewis lung: i.v. tumour, days 1, 5 and 9, >40% statistically significant
Text: LL. is the Lewis lung carcinoma.

[4] = Rm from reversed phase partition chromatography (lipophilic-hydrophilic balance)
[5] = system: P388 Leukemia; test: P388 leukemia in vivo (increase in lifespan); conditions: at OD; i.p. tumour, days 1, 5 and 9; >20% statistically significant
[6] = physchem; conditions: reversed phase partition chromatography

Row | chromatographic logP [4] | SMILES | ILSmax (percentage increase in lifespan), P388 [5] [%] | also measured
1 | 0.1 | CN(CCO)c1cc(NS(C)(=O)=O)ccc1Nc1c2ccccc2nc2ccccc12 [Compound 45] | 100 | –
2 | 0.51 | CNc1cc(NC(=O)OC)ccc1Nc1c2ccccc2nc2ccccc12 [Compound 50] | – | –
3 | 0.39 | COC(=O)Nc1ccc(Nc2c3ccccc3nc3ccccc23)c(NCCO)c1 [Compound 51] | – | –
4 | 0.78 | CNc1cc(NC(=O)OC)ccc1Nc1c2ccccc2nc2cc(C)ccc12 [Compound 52] | 86 | –
5 | 0.63 | CNc1cc(NC(=O)OC)ccc1Nc1c2ccccc2nc2cc(F)ccc12 [Compound 53] | 110 | –
6 | 0.73 | CNc1cc(NC(=O)OC)ccc1Nc1c2ccccc2nc2cc(Cl)ccc12 [Compound 54] | – | –
7 | 0.7 | CNc1cc(NC(=O)OC)ccc1Nc1c2ccccc2nc2cc(Br)ccc12 [Compound 55] | – | –
8 | 0.67 | CNc1cc(NC(=O)OC)ccc1Nc1c2ccc(Cl)cc2nc2c(C)cccc12 [Compound 56] | – | ILS (percentage increase in lifespan), Lewis lung ([3]; at OD): 100%
9 | 0.69 | CNc1cc(NC(=O)OC)ccc1Nc1c2ccc(Br)cc2nc2c(C)cccc12 [Compound 57] | 97 | ILS (percentage increase in lifespan), Lewis lung ([3]; at OD): 82%
10 | 0.56 | CNc1cc(NC(=O)OC)ccc1Nc1c2ccccc2nc2c(C)cccc12 [Compound 58] | – | ILS (percentage increase in lifespan), Lewis lung ([3]; at OD): 48%
11 | 0.56 | COC(=O)Nc1ccc(Nc2c3ccccc3nc3ccccc23)c(N(C)C)c1 [Compound 59] | 51 | –
12 | 0.55 | CNc1cc(NS(=O)(=O)c2ccccc2)ccc1Nc1c2ccccc2nc2ccccc12 [Compound 60] | – | –
13 | 0.35 | O=S(=O)(Nc1ccc(Nc2c3ccccc3nc3ccccc23)c(NCCO)c1)c1ccccc1 [Compound 61] | 81 | –
14 | 0.03 | CNc1cc(NS(=O)(=O)c2ccc(N)cc2)ccc1Nc1c2ccccc2nc2ccccc12 [Compound 62] | – | –
15 | 0.29 | CNc1cc(NS(=O)(=O)c2ccc(N)cc2)ccc1Nc1c2ccccc2nc2cc(Br)ccc12 [Compound 63] | – | –
16 | 0.13 | CNc1cc(NS(=O)(=O)c2ccc(N)cc2)ccc1Nc1c2ccccc2nc2c(C)cccc12 [Compound 64] | – | –
17 | 0.18 | Nc1ccc(S(=O)(=O)Nc2ccc(Nc3c4ccccc4nc4ccccc34)c(NCCO)c2)cc1 [Compound 65] | 50 | –

The next lines start with the molecule.

Row | SMILES | chromatographic logP [4] | ILSmax (percentage increase in lifespan), P388 [5] [%] | also measured
18 | CS(=O)(=O)Nc1ccc(Nc2c3ccccc3nc3ccccc23)cc1 [AMSA, 4'-(9-acridinylamino) methanesulphonanilide] | – | – | antitumour activity on L1210 leukemia [1]: good antitumour activity
19 | CNc1cc(NS(C)(=O)=O)ccc1Nc1c2ccccc2nc2ccccc12 [Compound 1] | 0.17 | – | potency and antitumour activity [2]: increased potency and antitumour activity; ILS (percentage increase in lifespan), Lewis lung ([3]; at OD): 85%
20 | CNc1cc(NS(C)(=O)=O)ccc1Nc1c2ccccc2nc2cc(C)ccc12 [Compound 3] | 0.39 | 83 | –
21 | CNc1cc(NS(C)(=O)=O)ccc1Nc1c2ccccc2nc2cc(OC)ccc12 [Compound 4] | 0.21 | 140 | –
22 | CNc1cc(NS(C)(=O)=O)ccc1Nc1c2ccccc2nc2cc(F)ccc12 [Compound 5] | 0.28 | – | –
23 | CNc1cc(NS(C)(=O)=O)ccc1Nc1c2ccccc2nc2cc(Cl)ccc12 [Compound 6] | 0.36 | – | –
24 | CNc1cc(NS(C)(=O)=O)ccc1Nc1c2ccccc2nc2cc(Br)ccc12 [Compound 7] | 0.34 | 94 | –
25 | CNc1cc(NS(C)(=O)=O)ccc1Nc1c2ccccc2nc2cc(I)ccc12 [Compound 8] | 0.35 | 80 | –
26 | CNc1cc(NS(C)(=O)=O)ccc1Nc1c2ccccc2nc2cc([N+](=O)[O-])ccc12 [Compound 9] | 0.04 | 70 | –
27 | CNc1ccc2c(Nc3ccc(NS(C)(=O)=O)cc3NC)c3ccccc3nc2c1 [Compound 10] | 0.18 | – | –
28 | CNc1cc(NS(C)(=O)=O)ccc1Nc1c2ccccc2nc2cc(NC(=O)OC)ccc12 [Compound 11] | 0.13 | – | –
29 | CNc1cc(NS(C)(=O)=O)ccc1Nc1c2ccccc2nc2c(C)cccc12 [Compound 12] | 0.19 | – | –
30 | CNc1cc(NS(C)(=O)=O)ccc1Nc1c2ccccc2nc2c(OC)cccc12 [Compound 13] | 0.12 | – | –
31 | CNC(=O)c1cccc2c(Nc3ccc(NS(C)(=O)=O)cc3NC)c3ccccc3nc12 [Compound 15] | 0.07 | 82 | –
32 | CNc1cc(NS(C)(=O)=O)ccc1Nc1c2ccc(C)cc2nc2c(C)cccc12 [Compound 16] | 0.38 | 92 | –
33 | CNc1cc(NS(C)(=O)=O)ccc1Nc1c2ccc(OC)cc2nc2c(C)cccc12 [Compound 17] | 0.31 | – | –
34 | CNc1cc(NS(C)(=O)=O)ccc1Nc1c2ccc(F)cc2nc2c(C)cccc12 [Compound 18] | 0.31 | – | –
35 | CNc1cc(NS(C)(=O)=O)ccc1Nc1c2ccc(Cl)cc2nc2c(C)cccc12 [Compound 19] | 0.4 | – | –
36 | CNc1cc(NS(C)(=O)=O)ccc1Nc1c2ccc(Br)cc2nc2c(C)cccc12 [Compound 21] | 0.38 | – | –

Row | SMILES | chromatographic logP [4] | ILSmax (percentage increase in lifespan), P388 [5] [%] | also measured
37 | CNc1cc(NS(C)(=O)=O)ccc1Nc1c2ccc(C)cc2nc2c(OC)cccc12 [Compound 22] | 0.33 | – | –
38 | CNC(=O)c1cccc2c(Nc3ccc(NS(C)(=O)=O)cc3NC)c3ccc(Cl)cc3nc12 [Compound 23] | 0.23 | 59 | –
39 | CNC(=O)c1cccc2c(Nc3ccc(NS(C)(=O)=O)cc3NC)c3cccc(C)c3nc12 [Compound 24] | 0.23 | 94 | –
40 | CNc1cc(NS(C)(=O)=O)ccc1Nc1c2cccc(C)c2nc2c(C)cccc12 [Compound 25] | 0.16 | – | –
41 | CNc1cc(NS(C)(=O)=O)ccc1Nc1c2cccc(OC)c2nc2c(OC)cccc12 [Compound 26] | – | 84 | –
42 | CS(=O)(=O)Nc1ccc(Nc2c3ccccc3nc3ccccc23)c(NCCO)c1 [Compound 27] | 0.07 | 89 | –
43 | CS(=O)(=O)Nc1ccc(Nc2c3ccccc3nc3cc(Br)ccc23)c(NCCO)c1 [Compound 28] | 0.11 | – | –
44 | Cc1cccc2c(Nc3ccc(NS(C)(=O)=O)cc3NCCO)c3ccccc3nc12 [Compound 29] | 0.02 | – | –
45 | CS(=O)(=O)Nc1ccc(Nc2c3ccccc3nc3ccccc23)c(NCC(O)CO)c1 (stereo not drawn) [Compound 30] | 0.3 | 84 | –
46 | Cc1cccc2c(Nc3ccc(NS(C)(=O)=O)cc3NCC(O)CO)c3ccccc3nc12 (stereo not drawn) [Compound 31] | 0.21 | 83 | –
47 | CN(C)c1cc(NS(C)(=O)=O)ccc1Nc1c2ccccc2nc2ccccc12 [Compound 32] | 0.41 | 212 | cures, Lewis lung ([3]; at OD): all cured; ILS (percentage increase in lifespan), Lewis lung ([3]; at OD): > 250%
48 | Cc1cccc2c(Nc3ccc(NS(C)(=O)=O)cc3N(C)C)c3ccccc3nc12 [Compound 34] | – | – | chromatographic logP [6]: 0.36
49 | COc1ccc2c(Nc3ccc(NS(C)(=O)=O)cc3N(C)C)c3cccc(C)c3nc2c1 [Compound 41] | – | – | chromatographic logP [6]: 0.44
50 | CNC(=O)c1cccc2c(Nc3ccc(NS(C)(=O)=O)cc3N(C)C)c3cccc(C)c3nc12 [Compound 44] | – | – | chromatographic logP [6]: 0.4
51 | CNc1cc(NP(=O)(OC)OC)ccc1Nc1c2ccccc2nc2ccccc12 [Compound 47] | 0.32 | 118 | –
52 | CNc1cc(NP(=O)(OC)OC)ccc1Nc1c2ccccc2nc2cc(Br)ccc12 [Compound 48] | 0.62 | 77 | –
53 | CNc1cc(NP(=O)(OC)OC)ccc1Nc1c2ccccc2nc2c(C)cccc12 [Compound 49] | 0.47 | 91 | –
54 | CNc1cc(NC(=O)Oc2ccccc2)ccc1Nc1c2ccccc2nc2ccccc12 [Compound 66] | 0.76 | 71 | –
55 | COc1cc(NS(C)(=O)=O)ccc1Nc1c2ccccc2nc2ccccc12 [m-AMSA, 4'-(9-acridinylamino)methanesulphon-m-anisidide, reference compound] | – | 78 | ILS (percentage increase in lifespan), Lewis lung ([3]; at OD): 38%; active, Lewis lung ([3]; at the stated dose (OD)): Y/N; Lewis lung activity in words ([3]; tumour implanted intravenously): minimal activity; also recorded: strictly inactive; dose potency of 3'-methoxy derivative ([1]; vs AMSA): increased dose potency
